Test results reported in patent US20230056994A1, “NECROPTOSIS MODULATORS, SCREENING METHODS AND PHARMACEUTICAL COMPOSITIONS” (NEURALIS SA, priority 2019, published 2023).
Entries after “also recorded” stand apart in the source; their conditions may differ.

How the values were obtained:
[1] = test system: phosphorylation state of MLKL in HT29 cells; experiment: Western blot of phospho-MLKL (Ser358) in HT29 cells, necroptosis induced by TNF-alpha and z-VAD-fmk; assay type: cell-based; settings: then TNF a 10 ng/ml 20 hrs, z-VAD-fmk 10 μM, One-Way ANOVA
Method: (§1) MCF7 and HT29 cells were cultured in DMEM along with 10% FBS, 1% Penicillin-Streptomycin and 1% Glutamine. The cells were pre-treated with 0.1% DMSO or z-VAD-fmk (10 μM) to induce necroptosis (positive control). In order to evaluate the effect of candidate agents on the induced necroptosis, Necrostatin 1 (Nec-1 (10 μM)) or Estetrol (E4 (10^-7 M) was added to the cells for 1 hr and was further subjected to Tumor Necrosis Factor (TNF) a (10 ng/ml) treatment for 20 hrs. The cells were then washed, followed by isolation and quantification of the total protein. 20 μg of protein from each treatment group was used for SDS-PAGE separation (10% […] gel) and was then transferred to PVDF membrane via a transfer apparatus. Post transfer, the membranes were blocked with 5% milk and further washed with the wash buffer. The membranes were further incubated with anti-Phospho-MLKL (Ser358) Polyclonal Antibody; Cat No: PA5-105678 (Thermofisher Scientific) at a dilution of 1/1000. The membranes were then incubated with secondary antibody (anti-Rabbit IgG, HRP-linked antibody, Cell signaling, Cat No: 7074S) at a dilution of 1/1000 and visualized using Western Blot substrate (Western Lightning Plus-ECL, Perkin Elmer, NEL104001EA) as per manufacturer's protocols. The results are shown in FIGS. 6 and 7, respectively for MCF7 and HT29 cells.

[2] = test system: phosphorylation state of MLKL in MCF7 cells; experiment: Western blot of phospho-MLKL (Ser358) in MCF7 cells, necroptosis induced by TNF-alpha and z-VAD-fmk; assay type: cell-based; settings: then TNF a 10 ng/ml 20 hrs, z-VAD-fmk 10 μM, One-Way ANOVA
Method: as §1

[3] = E4 10^-7 M for 1 hr, listed as E4
[4] = Nec-1 10 μM for 1 hr, listed as Nec 1
[5] = Nec-1 10 μM for 1 hr, listed as Necrostatin 1

| SMILES | reduction of MLKL phosphorylation versus TNF-alpha + z-VAD-fmk induced cells ([1]; E4 10^-7 M for 1 hr) | reduction of MLKL phosphorylation versus TNF-alpha + z-VAD-fmk induced cells [1, 3] | reduction of MLKL phosphorylation versus TNF-alpha + z-VAD-fmk induced cells ([2]; E4 10^-7 M for 1 hr) | reduction of MLKL phosphorylation versus TNF-alpha + z-VAD-fmk induced cells [2, 3] | reduction of MLKL phosphorylation versus TNF-alpha + z-VAD-fmk induced cells [1, 4] | reduction of MLKL phosphorylation versus TNF-alpha + z-VAD-fmk induced cells [1, 5] | reduction of MLKL phosphorylation versus TNF-alpha + z-VAD-fmk induced cells [2, 4] | reduction of MLKL phosphorylation versus TNF-alpha + z-VAD-fmk induced cells [2, 5] |
| --- | --- | --- | --- | --- | --- | --- | --- | --- |
| C[C@]12CC[C@@H]3c4ccc(O)cc4CC[C@H]3[C@@H]1[C@@H](O)[C@@H](O)[C@@H]2O [Estetrol] | decrease of phosphorylation of MLKL | statistically relevant (**p<0.01) | decrease of phosphorylation of MLKL | statistically relevant (**p<0.01) |  |  |  |  |
| CN1C(=O)C(Cc2c[nH]c3ccccc23)NC1=S (centres unmarked) [Nec-1, Necrostatin-1] |  |  |  |  | statistically Non-Significant (NS) | decrease of phosphorylation of MLKL | statistically significant (*p<0.05); also recorded: statistically relevant (*p<0.05) | decrease of phosphorylation of MLKL |
